The numbers were not newly measured in patent US6601275B2, “Method and composition for embalming” (United Biotechnologies, L.L.C., priority 2000, dated 2003), which cites them from elsewhere.

As for `C=O` [formaldehyde], under “airborne”, the “airborne concentration causing irritation of the eyes nose and throat” value is “above 0.1 ppm”; the “airborne concentration immediately dangerous to life and health” value is recorded as 100 ppm. Further, the carcinogenicity result (human) is on record as “potential human carcinogen”.
